Assay results as given in ChEMBL document CHEMBL4811277, “Glycyrrhetinic acid derivatives as Zika virus inhibitors: Synthesis and antiviral activity in vitro” (Bioorg Med Chem, 2021).
Activity calls are given as the source filed them. The calls are words filed in the database; no cut-off is given here.

Columns and labels:
[1] = tested on: Zika virus; experiment: Antiviral activity against Zika virus infected in human SF-268 cells assessed as inhibition of virus-induced cytopathic effect at 10 uM measured at 96 hrs MTT assay; type: functional
[2] = tested on: Zika virus; experiment: Antiviral activity against Zika virus infected in human SF-268 cells assessed as reduction in viral NS1 protein synthesis at 10 uM measured at 96 hrs by immunofluorescence assay relative to control; type: functional
[3] = Cytotoxicity against human SF-268 cells assessed as inhibition of cell viability measured after 96 hrs by MTT assay; type: cell-based
[4] = tested on: Zika virus; experiment: Antiviral activity against Zika virus infected in human SF-268 cells assessed as reduction in viral infection by DAPI staining based immunofluorescence assay; type: functional, organism-based
[5] = Therapeutic index, ratio of CC50 for cytotoxicity against human SF-268 cells to IC50 for antiviral activity against Zika virus infected in human SF-268 cells; type: toxicity, cell-based; settings: read-out: TI
[6] = tested on: Zika virus; experiment: Antiviral activity against Zika virus infected in SF-268 cells assessed as inhibition of viral infection at entry stage measured after 96 hrs by DAPI staining based fluorescence microscopic analysis; type: functional, organism-based; settings: SF-268, 96 h
[7] = tested on: Zika virus; experiment: Antiviral activity against Zika virus infected in SF-268 cells assessed as inhibition of viral infection at post entry stage after 96 hrs measured after 1 hr post infection by DAPI staining based fluorescence microscopic analysis; type: functional, organism-based

Row | SMILES | inhibition [1] | INH [2] | inhibition at 10 µM [1] | CC50 at 96 h [3] | IC50 [4] | selectivity ratio [5] | IC50 [6] | IC50 [7]
1 | CC(=O)O[C@H]1CC[C@@]2(C)C(CC[C@]3(C)C2C(=O)C=C2C4C[C@@](C)(C(=O)Nc5cnc6ccccc6c5)CC[C@]4(C)CC[C@]23C)C1(C)C (some centres not stated) | Active | 26.5% | – | – | – | – | – | –
2 | COC(=O)[C@@]1(C)CC[C@]2(C)CC[C@]3(C)C(=CCC4[C@@]5(C)CC/C(=N\NC(N)=O)C(C)(C)C5CC[C@]43C)C2C1 (some centres not stated) | Active | 49.9% | – | – | – | – | – | –
3 | CCCCOC(=O)[C@@]1(C)CC[C@]2(C)CC[C@]3(C)C(=CC(=O)C4[C@@]5(C)Cc6snnc6C(C)(C)C5CC[C@]43C)[C@@H]2C1 (some centres not stated) | – | 82.1% | > 70% | > 50000 nM | 560 nM | > 89.3 | 500 nM | 430 nM
4 | COC(=O)[C@]1(C)C=C2C3=CC(=O)C4[C@@]5(C)CC/C(=N\NC(N)=O)C(C)(C)C5CC[C@@]4(C)[C@]3(C)CC[C@@]2(C)CC1 (some centres not stated) | – | 62.6% | 63% | – | – | – | – | –
5 | COC(=O)[C@@]1(C)CC[C@]2(C)CC[C@]3(C)C(=CCC4[C@@]5(C)CC/C(=N\NC(N)=S)C(C)(C)C5CC[C@]43C)C2C1 (some centres not stated) | Active | 49.5% | – | – | – | – | – | –
6 | CC(=O)O[C@H]1CC[C@@]2(C)C(CC[C@]3(C)C2C(=O)C=C2C4C[C@@](C)(C(=O)Nc5nc(-c6ccccc6)cs5)CC[C@]4(C)CC[C@]23C)C1(C)C (some centres not stated) | Active | 52.3% | – | – | – | – | – | –
7 | CC(=O)O[C@H]1CC[C@@]2(C)C(CC[C@]3(C)C2C(=O)C=C2C4C[C@@](C)(C(=O)Nc5cccnc5)CC[C@]4(C)CC[C@]23C)C1(C)C (some centres not stated) | – | 76.3% | > 70% | > 50000 nM | 130 nM | > 384 | 680 nM | 1000 nM
8 | CCCCOC(=O)[C@@]1(C)CC[C@]2(C)CC[C@]3(C)C(=CC(=O)C4[C@@]5(C)CC/C(=N\NC(N)=O)C(C)(C)C5CC[C@]43C)[C@@H]2C1 (some centres not stated) | – | 82.8% | > 70% | > 50000 nM | 550 nM | > 90.9 | 1090 nM | 450 nM
9 | COC(=O)[C@@]1(C)CC[C@]2(C)CC[C@]3(C)C(=CCC4[C@@]5(C)Cc6snnc6C(C)(C)C5CC[C@]43C)C2C1 (some centres not stated) | Active | 55.4% | – | – | – | – | – | –
10 | COC(=O)[C@@]1(C)CC[C@]2(C)CC[C@]3(C)C(=CC(=O)C4[C@@]5(C)CC/C(=N\NC(N)=O)C(C)(C)C5CC[C@]43C)[C@@H]2C1 (some centres not stated) | – | 66.6% | 63% | – | – | – | – | –
11 | COC(=O)[C@@]1(C)CC[C@]2(C)CC[C@]3(C)C(=CC(=O)C4[C@@]5(C)Cc6snnc6C(C)(C)C5CC[C@]43C)[C@@H]2C1 (some centres not stated) | – | 74.9% | > 70% | > 50000 nM | 290 nM | > 172 | 620 nM | 1940 nM
